Blank lines part the entries; values can stand above or below the compound they belong to.
Tests used:
[1] = molecular target: EGFR kinase (Homo sapiens, UniProt P00533); experiment: ELISA-based EGFR kinase inhibition assay; settings: for inhibition at 0.15 µM: read-out: % Inhibition EGFR, 0.15 μM; for inhibition at 0.31 µM: read-out: % Inhibition EGFR, 0.31 μM; for inhibition at 0.625 µM: read-out: % Inhibition EGFR, 0.625 μM; for inhibition at 1.25 µM: read-out: % Inhibition EGFR, 1.25 μM; for inhibition at 2.5 µM: read-out: % Inhibition EGFR, 2.5 μM; for inhibition at 5 µM: read-out: % Inhibition EGFR, 5.0 μM; for inhibition at 10 µM: read-out: % Inhibition EGFR, 10.0 μM; for Conc. (Average), ELISA read-out: duplicate wells, standards in ng/ml, cont 134.9
[2] = test system: HeLa cells; experiment: MTT antitumour assay, HeLa; assay type: cell-based; settings: human cervical epithelioid carcinoma cell line, mean ± SD, n = 3
Protocol: (§1) The evaluation of the antitumour activity was performed using tetrazolium salt MTT (3-(4,5-dimethyl-2-thiazolyl)-2,5-diphenyl-2H-tetrazolium bromide) assay as reported[62]^,[63].
The designed compounds were evaluated for their in vitro antitumour effects via the standard 3-(4,5-dimethylthiazol-2-yl)-2,5-diphenyltetrazolium bromide (MTT) method against a panel of four human tumour cell lines; namely, hepatocellular carcinoma cell line (HepG2), breast cancer cell line (MCF-7), human cervical cancer cell line (HeLa), and prostate cancer cell line (PC-3)[62]^,[63]^,[72].

[3] = ABTS radical cation scavenging (antioxidant) assay; settings: 20 µl of 1 mg/ml test sample (L-ascorbic acid 20 µl, 2 mM)
Protocol: The absorbance (Acontrol) of a green-blue solution (ABTS^+ radical solution) resulted from a mixture of ABTS and manganese dioxide (MnO2) and was recorded at λmax 734 nm, according to the reported procedure[64]^,[65]. The absorbance (Atest) was measured upon the addition of 20 µl of 1 mg/ml solution of the test sample in spectroscopic grade methanol/phosphate buffer (1:1 v/v) to the ABTS solution. The decrease in absorbance is expressed as % inhibition, which can be calculated from the following equation: % inhibition = Acontrol-Atest/Acontrol×100.
L-Ascorbic acid 20 µl (2 mM) solution was used as standard antioxidant (positive control). A blank sample was run using only methanol/phosphate buffer (1:1), while the negative control was run with ABTS and the methanol/phosphate buffer.
The assay is based on measuring the ability of the tested compounds to scavenge the long-life radical cation of ABTS[22]^,[43]^,[64]^,[65].

[4] = test system: HepG2, MCF-7, HeLa, and PC-3 cancer cell lines; experiment: MTT antitumour assay, range over the four cell lines; assay type: cell-based, human; settings: Homo sapiens, range over HepG2, MCF-7, HeLa, PC-3 (and over the compounds named), read-out: IC50 range against the tested cell lines
Protocol: as §1
(§2) The designed compounds were evaluated for their in vitro antitumour effects via the standard 3-(4,5-dimethylthiazol-2-yl)-2,5-diphenyltetrazolium bromide (MTT) method against a panel of four human tumour cell lines; namely, hepatocellular carcinoma cell line (HepG2), breast cancer cell line (MCF-7), human cervical cancer cell line (HeLa), and prostate cancer cell line (PC-3)[62]^,[63]^,[72]. The antitumour activities of the designed compounds 4–12, along with that of the reference drugs 5-FU and afatinib are shown in Table 1.

[5] = test system: MCF-7 cells; experiment: MTT antitumour assay, MCF-7; assay type: cell-based; settings: MCF7, human breast adenocarcinoma cell line, mean ± SD, n = 3
Protocol: as §1, §2

[6] = test system: PC-3 cells; experiment: MTT antitumour assay, PC-3; assay type: cell-based; settings: human prostate cancer cell line, mean ± SD, n = 3
Protocol: as §1, §2

[7] = test system: HepG2 cells; experiment: MTT antitumour assay, HepG2; assay type: cell-based; settings: human hepato-cellular carcinoma cell line, mean ± SD, n = 3
Protocol: as §1, §2

Sequence of EGFR kinase (P00533 25-1210): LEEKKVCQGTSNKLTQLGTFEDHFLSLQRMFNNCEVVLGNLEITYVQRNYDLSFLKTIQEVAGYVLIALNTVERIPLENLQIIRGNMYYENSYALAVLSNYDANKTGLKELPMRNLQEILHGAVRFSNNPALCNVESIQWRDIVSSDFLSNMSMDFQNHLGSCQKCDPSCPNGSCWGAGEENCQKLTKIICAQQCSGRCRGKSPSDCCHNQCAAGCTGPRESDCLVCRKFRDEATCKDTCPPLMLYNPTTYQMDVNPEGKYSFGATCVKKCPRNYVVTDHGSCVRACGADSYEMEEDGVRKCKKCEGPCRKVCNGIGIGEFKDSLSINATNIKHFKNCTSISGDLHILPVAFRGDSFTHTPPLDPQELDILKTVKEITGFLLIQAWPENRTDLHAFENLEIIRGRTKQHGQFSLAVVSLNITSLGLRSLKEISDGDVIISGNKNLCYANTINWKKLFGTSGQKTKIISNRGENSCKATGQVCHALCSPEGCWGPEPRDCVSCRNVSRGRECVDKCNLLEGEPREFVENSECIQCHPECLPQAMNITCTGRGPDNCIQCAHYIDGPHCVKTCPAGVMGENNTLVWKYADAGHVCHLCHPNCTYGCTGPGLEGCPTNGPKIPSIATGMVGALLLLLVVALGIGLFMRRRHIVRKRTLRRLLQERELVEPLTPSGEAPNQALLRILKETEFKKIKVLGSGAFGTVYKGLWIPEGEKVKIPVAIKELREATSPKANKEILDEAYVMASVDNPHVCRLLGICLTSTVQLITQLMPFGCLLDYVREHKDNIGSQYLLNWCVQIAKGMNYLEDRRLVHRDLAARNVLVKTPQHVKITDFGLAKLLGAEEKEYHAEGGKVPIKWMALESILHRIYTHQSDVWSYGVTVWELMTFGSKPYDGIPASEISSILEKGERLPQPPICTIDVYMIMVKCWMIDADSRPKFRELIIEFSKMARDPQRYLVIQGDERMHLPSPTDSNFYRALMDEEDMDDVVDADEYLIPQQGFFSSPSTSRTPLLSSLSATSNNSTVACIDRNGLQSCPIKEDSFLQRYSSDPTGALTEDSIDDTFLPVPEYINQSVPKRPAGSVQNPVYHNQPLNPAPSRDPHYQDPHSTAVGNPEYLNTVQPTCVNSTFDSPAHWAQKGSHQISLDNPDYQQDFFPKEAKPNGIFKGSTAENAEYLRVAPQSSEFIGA

Compound: O=C1CCCCC1=Cc1ccc(OC2CCCC2)cc1 [5b, 2-(4-(Cyclopentyloxy)benzylidene)cyclohexanone]
- IC50 [2]: 30.1 ± 2.24 µM
- %Inhibition of the ABTS radical cation [3]: 51.4%
- IC50 [5]: 49.4 ± 3.16 µM
- IC50 ([6]; PC-3, MTT): 71.1 ± 4.93 µM
- IC50 [7]: 55.4 ± 3.95 µM

Compound: O=c1[nH]cc(F)c(=O)[nH]1 [5-FU, 5-fluorouracil, reference compound]
- IC50 [2]: 4.8 ± 0.21 µM
- IC50 [4]: 4.8 to 8.3 µM
- IC50 [5]: 5.4 ± 0.2 µM
- IC50 ([6]; PC-3, MTT): 8.3 ± 0.35 µM
- IC50 [7]: 7.9 ± 0.17 µM

Compound: O=C1CCCC1=Cc1ccc(OC2CCCC2)cc1 [5a, 2-(4-(Cyclopentyloxy)benzylidene)cyclopentanone]
- IC50 [2]: 77.8 ± 4.41 µM
- IC50 [5]: > 100 µM
- IC50 ([6]; PC-3, MTT): 94.1 ± 5.82 µM
- IC50 [7]: > 100 µM

Compound: O=C1CCCCCC1=Cc1ccc(OC2CCCC2)cc1 [5c, 2-(4-(Cyclopentyloxy)benzylidene)cycloheptanone]
- IC50 [2]: 37.5 ± 2.81 µM
- %Inhibition of the ABTS radical cation [3]: 51.0%
- IC50 [5]: 64.7 ± 4.27 µM
- IC50 ([6]; PC-3, MTT): 26.9 ± 1.89 µM
- IC50 [7]: 71.3 ± 4.53 µM

Compound: CC(=O)C=Cc1ccc(OC2CCCC2)cc1 [4a, 4-(4-(Cyclopentyloxy)phenyl)but-3-en-2-one]
- IC50 [2]: 25.7 ± 1.97 µM
- %Inhibition of the ABTS radical cation [3]: 52.0%
- IC50 [4]: 21.8 to 40.9 µM
- IC50 [5]: 40.9 ± 2.79 µM
- IC50 ([6]; PC-3, MTT): 21.8 ± 1.68 µM
- IC50 [7]: 27.3 ± 1.96 µM

Compound: Cc1ccc(C(=O)C=Cc2ccc(OC3CCCC3)cc2)cc1 [4b, 3-(4-(Cyclopentyloxy)phenyl)-1-(4-methylphenyl)prop-2-en-1-one]
- IC50 [2]: 18.8 ± 1.57 µM
- %Inhibition of the ABTS radical cation [3]: 52.6%
- IC50 [5]: 36.4 ± 2.6 µM
- IC50 ([6]; PC-3, MTT): 17.1 ± 1.58 µM
- IC50 [7]: 20 ± 1.11 µM

Compound: O=C1O[C@H]([C@@H](O)CO)C(O)=C1O [Ascorbic acid, L-Ascorbic acid, reference compound]
- %Inhibition of the ABTS radical cation [3]: 90.0%

More lines, main results first:

- IC50 [1]: 1.6 µM
- % Inhibition EGFR ([1]; 0.15 μM): 8.22%
- % Inhibition EGFR ([1]; 0.31 μM): 31.78%
- % Inhibition EGFR ([1]; 0.625 μM): 43.27%
- % Inhibition EGFR ([1]; 1.25 μM): 49.65%
- % Inhibition EGFR ([1]; 2.5 μM): 52.86%
- % Inhibition EGFR ([1]; 5.0 μM): 65.98%
- % Inhibition EGFR ([1]; 10.0 μM): 72.78%
- inhibition at 0.15 µM [1]: 8.23%
- inhibition at 0.31 µM [1]: 31.8%
- inhibition at 0.625 µM [1]: 43.3%
- inhibition at 1.25 µM [1]: 49.7%
- inhibition at 2.5 µM [1]: 52.9%
- inhibition at 5 µM [1]: 66%
- inhibition at 10 µM [1]: 72.8%
- Conc. (Average), ELISA read-out ([1]; sample at 0.15uM): 123.8
- Conc. (Average), ELISA read-out ([1]; sample at 0.31uM): 92.02
- Conc. (Average), ELISA read-out ([1]; sample at 0.62uM): 76.52
- Conc. (Average), ELISA read-out ([1]; sample at 1.25uM): 67.92
- Conc. (Average), ELISA read-out ([1]; sample at 2.5uM): 63.59
- Conc. (Average), ELISA read-out ([1]; sample at 5uM): 45.89
- Conc. (Average), ELISA read-out ([1]; sample at 10uM): 36.71
- IC50 [2]: 10.3 ± 1.13 µM
- IC50 [4]: 5.5 to 18.1 µM
- IC50 [5]: 7.5 ± 0.54 µM
- IC50 ([6]; PC-3, MTT): 13.3 ± 1.26 µM
- IC50 [7]: 8 ± 0.38 µM
Compound: CCOC(=O)C1=C(C)OC(N)=C(C#N)C1c1ccc(OC2CCCC2)cc1 (stereo not shown) [compound 7, ethyl 6-amino-5-cyano-4-(4-(cyclopentyloxy)phenyl)-2-methyl-4H-pyran-3-carboxylate]
- %Inhibition of the ABTS radical cation [3]: 75.8%

- IC50 [1]: 4.66 µM
- % Inhibition EGFR ([1]; 0.15 μM): 6.67%
- % Inhibition EGFR ([1]; 0.31 μM): 18.16%
- % Inhibition EGFR ([1]; 0.625 μM): 26.84%
- % Inhibition EGFR ([1]; 1.25 μM): 34.55%
- % Inhibition EGFR ([1]; 2.5 μM): 44.35%
- % Inhibition EGFR ([1]; 5.0 μM): 50.34%
- % Inhibition EGFR ([1]; 10.0 μM): 57.65%
- inhibition at 0.15 µM [1]: 6.67%
- inhibition at 0.31 µM [1]: 18.2%
- inhibition at 0.625 µM [1]: 26.8%
- inhibition at 1.25 µM [1]: 34.6%
- inhibition at 2.5 µM [1]: 44.4%
- inhibition at 5 µM [1]: 50.3%
- inhibition at 10 µM [1]: 57.7%
- Conc. (Average), ELISA read-out ([1]; sample at 0.15uM): 125.9
- Conc. (Average), ELISA read-out ([1]; sample at 0.31uM): 110.4
- Conc. (Average), ELISA read-out ([1]; sample at 0.62uM): 98.68
- Conc. (Average), ELISA read-out ([1]; sample at 1.25uM): 88.29
- Conc. (Average), ELISA read-out ([1]; sample at 2.5uM): 75.07
- Conc. (Average), ELISA read-out ([1]; sample at 5uM): 66.98
- Conc. (Average), ELISA read-out ([1]; sample at 10uM): 57.13
- IC50 [2]: 9.4 ± 0.98 µM
- IC50 [4]: 5.5 to 18.1 µM
- IC50 [5]: 18.1 ± 1.58 µM
- IC50 ([6]; PC-3, MTT): 10.5 ± 0.97 µM
- IC50 [7]: 15.9 ± 1.02 µM
Compound: CN1CCC(=O)C(=Cc2ccc(OC3CCCC3)cc2)C1 [6a, 3-(4-(Cyclopentyloxy)benzylidene)-1-methylpiperidin-4-one]
- %Inhibition of the ABTS radical cation [3]: 54.3%

- IC50 [1]: 0.56 µM
- % Inhibition EGFR ([1]; 0.15 μM): 26.52%
- % Inhibition EGFR ([1]; 0.31 μM): 48.95%
- % Inhibition EGFR ([1]; 0.625 μM): 55.33%
- % Inhibition EGFR ([1]; 1.25 μM): 61.23%
- % Inhibition EGFR ([1]; 2.5 μM): 64.44%
- % Inhibition EGFR ([1]; 5.0 μM): 76.71%
- % Inhibition EGFR ([1]; 10.0 μM): 83.66%
- inhibition at 0.15 µM [1]: 26.5%
- inhibition at 0.31 µM [1]: 49%
- inhibition at 0.625 µM [1]: 55.3%
- inhibition at 1.25 µM [1]: 61.2%
- inhibition at 2.5 µM [1]: 64.4%
- inhibition at 5 µM [1]: 76.7%
- inhibition at 10 µM [1]: 83.7%
- Conc. (Average), ELISA read-out ([1]; sample at 0.15uM): 99.12
- Conc. (Average), ELISA read-out ([1]; sample at 0.31uM): 68.86
- Conc. (Average), ELISA read-out ([1]; sample at 0.62uM): 60.25
- Conc. (Average), ELISA read-out ([1]; sample at 1.25uM): 52.29
- Conc. (Average), ELISA read-out ([1]; sample at 2.5uM): 47.96
- Conc. (Average), ELISA read-out ([1]; sample at 5uM): 31.41
- Conc. (Average), ELISA read-out ([1]; sample at 10uM): 22.04
- IC50 [2]: 6.7 ± 0.67 µM
- IC50 [4]: 5.5 to 18.1 µM
- IC50 [5]: 13.7 ± 1.35 µM
- IC50 ([6]; PC-3, MTT): 9.1 ± 0.88 µM
- IC50 [7]: 13 ± 0.87 µM
Compound: CCN1CCC(=O)C(=Cc2ccc(OC3CCCC3)cc2)C1 [6b, 3-(4-(Cyclopentyloxy)benzylidene)-1-ethylpiperidin-4-one]
- %Inhibition of the ABTS radical cation [3]: 55.1%

- IC50 [2]: 6.2 ± 0.67 µM
- IC50 [4]: 5.4 to 7.6 µM
- IC50 [5]: 7.1 ± 0.49 µM
- IC50 ([6]; Homo sapiens, PC-3, MTT): 7.6 µM
- IC50 ([6]; MTT): 7.7 ± 0.57 µM
- IC50 [7]: 5.4 ± 0.25 µM
Compound: CN(C)C/C=C/C(=O)Nc1cc2c(Nc3ccc(F)c(Cl)c3)ncnc2cc1O[C@H]1CCOC1 [Afatinib, reference compound]

— article PMC6010098, “Synthesis, antitumour and antioxidant activities of novel α,β-unsaturated ketones and related heterocyclic analogues: EGFR inhibition and molecular modelling study” (Journal of Enzyme Inhibition and Medicinal Chemistry, 2018)
